The results in this text go back to patent EP4737449A1 (Changchun Genescience Pharmaceutical Co., Ltd., priority 2023, dated 2025).

The term IC50 denotes the concentration that gives 50% inhibition.

For experiment [1], the target named is CYP 3A4 enzyme in human liver microsomes (Homo sapiens, UniProt P08684). Kind of experiment: CYP3A4 inhibition experiment in human liver microsomes. As for the experimental part: The inhibitory effects of the test compounds on CYP 3A4T (with testosterone as substrate) and 3A4M (with midazolam as substrate) in human liver microsomes were evaluated in vitro to assess the medication safety of the compounds.
CYP 3A4 enzyme in human liver microsomes, sequence (P08684 whole entry): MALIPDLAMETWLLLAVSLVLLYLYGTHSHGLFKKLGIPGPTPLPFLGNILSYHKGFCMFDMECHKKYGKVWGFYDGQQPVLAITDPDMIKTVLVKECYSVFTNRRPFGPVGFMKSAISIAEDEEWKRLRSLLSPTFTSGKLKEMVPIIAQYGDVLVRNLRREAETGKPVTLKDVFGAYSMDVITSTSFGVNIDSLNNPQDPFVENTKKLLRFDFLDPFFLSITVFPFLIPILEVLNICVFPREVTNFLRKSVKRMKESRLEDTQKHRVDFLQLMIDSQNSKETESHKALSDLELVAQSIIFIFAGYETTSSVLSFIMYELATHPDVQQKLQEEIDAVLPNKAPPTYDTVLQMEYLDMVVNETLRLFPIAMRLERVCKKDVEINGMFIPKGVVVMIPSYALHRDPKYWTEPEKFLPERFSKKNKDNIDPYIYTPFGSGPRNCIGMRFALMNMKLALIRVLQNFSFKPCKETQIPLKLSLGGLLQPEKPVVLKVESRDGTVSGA
This study used the human liver microsome system and the cytochrome P450 enzyme probe substrate recommended by FDA guidelines for in vitro drug interaction studies to investigate the inhibition of the CYP 3A4 enzyme in human liver microsomes by the test compounds.
Test group (TG): Human liver microsomes were incubated with different concentrations of test compounds, NADPH (final concentration 2.00 mM) and probe substrates of different sub-enzymes (Table 4) for 5 min.
Positive control group (PC): Human liver microsomes were incubated with inhibitors (Table 4), NADPH (final concentration 2.00 mM) and probe substrates of different sub-enzymes (Table 4) for 5 min. Table 4 Probe substrates of sub-enzymes, inhibitors and incubation systems
The system was pre-incubated at 37°C for 5 min, and then 15 µL of 8 mM NADPH solution preheated at 37°C for 5-10 min to start the reaction. After incubation of the 96-well plate at 37°C for 5 min, 180 µL of acetonitrile:methanol (ACN:MeOH=1:1) solution containing internal standard (IS) was added to terminate the reaction. […] 80 µL of the supernatant was taken, added to 120 µL of ultrapure water, shaken evenly, and then detected by LC-MS/MS.
199 µL of 0.2 mg/mL HLM and 1 µL of 1 mM positive control inhibitor (ketoconazole) working solutions were taken and mixed evenly. 30 µL of the drug-containing liver microsome solution was taken and added to a 96-well plate, then 10 µL of substrate working solution (20 µM midazolam) was added, in duplicate. The system was pre-incubated at 37°C for 5 min, and then 15 µL of 8 mM NADPH solution preheated at 37°C for 5-10 min to start the reaction. After incubation of the 96-well plate at 37°C for 5 min, 180 µL of ACN:MeOH(1:1) solution containing IS was added to terminate the reaction. […] 80 µL of the supernatant was taken, added to 120 µL of ultrapure water, shaken evenly, and then detected by LC-MS/MS.
4.2.5.1 The relative activity of CYP450 sub-enzymes at different concentrations was calculated by dividing the peak area ratio (analyte peak area/internal standard peak area) of metabolites in the presence of the test sample or positive control by the peak area ratio of metabolites in the solvent control sample in the absence of the test article or positive control, according to the following formula: [formula] [formula]
4.2.5.2 Half maximal inhibitory concentration (IC50) was obtained by fitting according to the following model formula using Prism software: Y = Bottom + (Top−Bottom)/(1+10^(∧)((LogIC50−X)×HillSlope)) [formula]
X is the test sample concentration converted to logarithm (Log µM), Y is the relative activity (% of NC), Bottom and Top represent the percentage of enzyme activity at the bottom platform and top platform of the curve, respectively, and HillSlope represents the slope; to optimize the fitting effect, the use of other (nonlinear) dose-response models for fitting is not considered as a deviation from the protocol.

Experiment [2] addresses T1, p53-Y220C mutant protein (Homo sapiens, UniProt P04637, Y220C).
T1 construct: The recombinant Y220C p53 DBD protein with his-tag
Kind of experiment: In vitro DNA binding activity assay (TR-FRET). Particulars: concentration required to increase the binding activity of protein to DNA by 50%. The experiment is classed as biochemical. Put shortly:
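SC150, the compound concentration increasing p53-Y220C DNA binding by 50% relative to vehicle, came from background-corrected 665/615 nm TR-FRET ratios. His-tagged DBD and compound were preincubated 60 min at RT before biotin-DNA plus Eu-anti-His/streptavidin-d2 detection overnight in the dark.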
(In general: TR-FRET usually uses a lanthanide donor and a delayed reading to cut background.)

Experiment [3] has as its system NUGC-3 cells. Briefly: NUGC-3 cell proliferation assay (CTG, 7 days). The experiment is classed as cell-based, human. Put shortly:
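Cells (200/well) in 1640 medium with 10% serum exposed to 10-point, 3-fold DMSO dilutions (duplicates) for 7 days at 37°C. Viability read by CellTiter-Glo luminescence; % inhibition normalized to DMSO and blank, IC50 from variable-slope nonlinear fit.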

The mark [4] stands for this setting: CYP 3A4M IC50, human liver microsomes, midazolam as substrate.
The mark [5] stands for this setting: CYP 3A4T IC50, human liver microsomes, testosterone as substrate.
Where [6] appears, read: Homo sapiens, NUGC-3, 168 h, NUGC-3 cell proliferation, 7 days, CTG, read-out: IC50.

Where two headings read alike, the source gives them in different places.

`CC(n1ncc(C(=O)NCC#Cc2nn3c(N[C@@H]4CCN(C)C[C@@H]4F)cccc3c2CC(F)(F)F)c1N)C(F)(F)F` (single isomer, unassigned) [Compound 355A]: the IC50 in experiment [1] (setting [4]) was above 30 µM; in experiment [1] (setting [5]), 14.1 µM; in experiment [3] (setting [6]), 0.167 µM. The same compound displayed an SC150 in experiment [2] of 7 nM.
Consider `CC(n1ncc(C(=O)NCC#Cc2nn3c(N[C@@H]4CCN(C)C[C@@H]4F)cccc3c2CC(F)(F)F)c1N)C(F)(F)F` (single isomer, unassigned) [Compound 355B], for which the IC50 turned out to be 12.5 µM in experiment [1] (setting [4]); 13.7 µM in experiment [1] (setting [5]); 0.154 µM in experiment [3] (NUGC-3 cell proliferation, 7 days, CTG, read-out: IC50). For the same compound, the SC150 in experiment [2] is listed as 16 nM.
For `CCN1CC[C@@H](Nc2cccc3c(CC(F)(F)F)c(C#CCNC(=O)c4cnn(C(C)(C)C)c4N)nn23)[C@@H](F)C1` [Compound 353, 5-amino-1-tert-butyl-N-[3-(7-{[(3S,4R)-1-ethyl-3-fluoropiperidin-4-yl]amino}-3-(2,2,2-trifluoroethyl)pyrazolo[1,5-a]pyridin-2-yl)prop-2-yn-1-yl]-1H-pyrazole-4-carboxamide], the values for the IC50 in experiment [1] (setting [4]), in experiment [1] (setting [5]) and in experiment [3] (setting [6]) were 22.3 µM, 26.5 µM and 0.152 µM, respectively. The same compound showed an SC150 in experiment [2] of 4 nM.
For `CN1CC[C@@H](Nc2cccc3c(CC(F)(F)F)c(C#CCNC(=O)c4cc5n(c4)CCOC5)nn23)[C@@H](F)C1` [Compound 281, N-[3-(7-{[(3S,4R)-3-fluoro-1-methylpiperidin-4-yl]amino}-3-(2,2,2-trifluoroethyl)pyrazolo[1,5-a]pyridin-2-yl)prop-2-yn-1-yl]-3,4-dihydro-1H-pyrrolo[2,1-c][1,4]oxazine-7-carboxamide], in that order: above 30 µM, above 30 µM, 0.413 µM and 13 nM.
The matching figures for `Cc1cc(C(=O)NCC#Cc2nn3c(N[C@@H]4CCN(C)C[C@@H]4F)cccc3c2CC(F)(F)F)co1` [Compound 278, N-[3-(7-{[(3S,4R)-3-fluoro-1-methylpiperidin-4-yl]amino}-3-(2,2,2-trifluoroethyl)pyrazolo[1,5-a]pyridin-2-yl)prop-2-yn-1-yl]-5-methylfuran-3-carboxamide]: 14.7 µM, 13 µM, 1.12 µM and 24 nM.
The matching figures for `CN1CC[C@@H](Nc2cccc3c(CC(F)(F)F)c(C#CCNC(=O)c4cnn5c4CCCC5)nn23)[C@@H](F)C1` [Compound 276, N-[3-(7-{[(3S,4R)-3-fluoro-1-methylpiperidin-4-yl]amino}-3-(2,2,2-trifluoroethyl)pyrazolo[1,5-a]pyridin-2-yl)prop-2-yn-1-yl]-4,5,6,7-tetrahydropyrazolo[1,5-a]pyridine-3-carboxamide]: 17.4 µM, above 30 µM, 0.856 µM and 18 nM.
As for `COCCn1ccc(C(=O)NCC#Cc2nn3c(N[C@@H]4CCN(C)C[C@@H]4F)cccc3c2CC(F)(F)F)c1` [Compound 279, N-[3-(7-{[(3S,4R)-3-fluoro-1-methylpiperidin-4-yl]amino}-3-(2,2,2-trifluoroethyl)pyrazolo[1,5-a]pyridin-2-yl)prop-2-yn-1-yl]-1-(methoxyethyl)-1H-pyrrole-3-carboxamide], the 50% inhibitory concentration (IC50) in experiment [1] (setting [4]) stood at 18 µM; in experiment [1] (setting [5]), 24.3 µM; in experiment [3] (setting [6]) it was 0.672 µM. Further, the SC150 in experiment [2] is 9 nM.
`CC(C)N1CC[C@@H](Nc2cccc3c(CC(F)(F)F)c(C#CCNC(=O)c4cnn(C(C)(C)C)c4N)nn23)[C@@H](F)C1` [Compound 354]: the IC50 in experiment [1] (setting [4]) was determined as 15.6 µM; in experiment [1] (setting [5]) it was 18.5 µM; in experiment [3] (Homo sapiens, NUGC-3, 168 h) it was 0.177 µM. For the same compound, the SC150 in experiment [2] worked out at 3 nM.
Regarding `CN1CC[C@@H](Nc2cccc3c(CC(F)(F)F)c(C#CCNC(=O)c4ccc(N5CCOCC5)nc4)nn23)[C@@H](F)C1` [Compound 275, N-[3-(7-{[(3S,4R)-3-fluoro-1-methylpiperidin-4-yl]amino}-3-(2,2,2-trifluoroethyl)pyrazolo[1,5-a]pyridin-2-yl)prop-2-yn-1-yl]-(6-morpholin-4-yl)pyridine-3-carboxamide], the values for the IC50 in experiment [1] (setting [4]), in experiment [1] (setting [5]) and in experiment [3] (setting [6]) were above 30 µM, above 30 µM and 0.901 µM, respectively. This compound also returned an SC150 in experiment [2] of 27 nM.
For `CN1CC[C@@H](Nc2cccc3c(CC(F)(F)F)c(C#CCNC(=O)c4ccn(C(C)(C)C)c4)nn23)[C@@H](F)C1` [Compound 087, 1-(tert-butyl)-N-(3-(7-{[(3S,4R)-3-fluoro-1-methylpiperidin-4-yl]amino}-3-(2,2,2-trifluoroethyl)pyrazolo[1,5-a]pyridin-2-yl)prop-2-yn-1-yl)-1H-pyrrole-3-carboxamide], the IC50 in experiment [1] (setting [4]) was above 30 µM; in experiment [1] (setting [5]), above 30 µM; in experiment [3] (setting [6]) it was 1.37 µM. Further, the SC150 in experiment [2] was 19 nM.
Turning to `CN1CC[C@@H](Nc2cccc3c(CC(F)(F)F)c(C#CCNC(=O)c4ncn(C(C)(C)C)c4N)nn23)[C@@H](F)C1` [Compound 283, 5-amino-1-tert-butyl-N [3-(7-{[(3S,4R)-3-fluoro-1-methylpiperidin-4-yl]amino}-3-(2,2,2-trifluoroethyl)pyrazolo[1,5-a]pyridin-2-yl)prop-2-yn-1-yl]-1H-pyrazole-4-carboxamide], the half-inhibitory concentration (IC50) in experiment [1] (setting [4]) was above 30 µM; in experiment [1] (setting [5]), 18.1 µM; in experiment [3] (Homo sapiens, NUGC-3, 168 h) it was 1.64 µM. The compound further registered an SC150 in experiment [2] of 19 nM.
For `CN1CC[C@@H](Nc2cccc3c(CC(F)(F)F)c(C#CCNC(=O)c4cnn5c4CC(C)(C)C5)nn23)[C@@H](F)C1` [Compound 146, N-[3-(7-{[(3S,4R)-3-fluoro-1-methylpiperidin-4-yl]amino}-3-(2,2,2-trifluoroethyl)pyrazolo[1,5-a]pyridin-2-yl)prop-2-yn-1-yl]-5,5-dimethyl-5,6-dihydro-4H-pyrrolo[1,2-b]-1Hpyrazole-3-carboxamide], the IC50 is 9.7 µM in experiment [1] (setting [4]); 10.5 µM in experiment [1] (setting [5]); 0.955 µM in experiment [3] (Homo sapiens, NUGC-3, 168 h). For the same compound, the SC150 in experiment [2] came to 13 nM.
The matching figures for `CCn1ccc(C(=O)NCC#Cc2nn3c(N[C@@H]4CCN(C)C[C@@H]4F)cccc3c2CC(F)(F)F)c1` [Compound 277, 1-ethyl-N-[3-(7-{[(3S,4R)-3-fluoro-1-methylpiperidin-4-yl]amino}-3-(2,2,2-trifluoroethyl)pyrazolo[1,5-a]pyridin-2-yl)prop-2-yn-1-yl]-1H-pyrrole-3-carboxylic acid amide]: 12.4 µM, 15.8 µM, 0.726 µM and 14 nM.
